Calls of active or inactive are those of the source. The rule behind the calls is not given here.
Legend:
Format in all cases: cell-based
[1] = target: T1, Somatostatin receptor type 5 (Homo sapiens, UniProt P35346); experiment: Compound was tested for inhibition of specific [125I]Tyr11-SRIF binding to human recombinant SST5 (somatostatin) receptor expressed in CHO-K1 cells
[2] = target: Somatostatin receptor type 2 (Homo sapiens) (UniProt P30874); experiment: Tested for inhibitory activity at human recombinant sst 2 receptors expressed in CHO-K1 cells; No inhibition showed more than 50% inhibition
Somatostatin receptor type 2 (Homo sapiens), sequence (P30874 whole entry): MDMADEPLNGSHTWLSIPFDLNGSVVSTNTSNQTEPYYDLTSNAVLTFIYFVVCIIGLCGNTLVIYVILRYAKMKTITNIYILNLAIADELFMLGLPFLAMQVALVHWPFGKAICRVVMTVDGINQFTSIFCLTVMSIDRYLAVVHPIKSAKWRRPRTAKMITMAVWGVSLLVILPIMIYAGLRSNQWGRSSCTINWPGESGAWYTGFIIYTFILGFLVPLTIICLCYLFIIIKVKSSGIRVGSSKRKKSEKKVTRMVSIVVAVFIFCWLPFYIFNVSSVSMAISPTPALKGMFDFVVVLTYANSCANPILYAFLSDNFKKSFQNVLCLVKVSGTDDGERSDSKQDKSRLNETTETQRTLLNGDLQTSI

[3] = target: T1, Somatostatin receptor type 5; experiment: Compound was tested for inhibition of specific [125I]-Tyr11-SRIF binding to human recombinant SST5 (somatostatin) receptor expressed in CHO-K1 cells at 10e-6 M concentration

T1 sequence (P35346 whole entry): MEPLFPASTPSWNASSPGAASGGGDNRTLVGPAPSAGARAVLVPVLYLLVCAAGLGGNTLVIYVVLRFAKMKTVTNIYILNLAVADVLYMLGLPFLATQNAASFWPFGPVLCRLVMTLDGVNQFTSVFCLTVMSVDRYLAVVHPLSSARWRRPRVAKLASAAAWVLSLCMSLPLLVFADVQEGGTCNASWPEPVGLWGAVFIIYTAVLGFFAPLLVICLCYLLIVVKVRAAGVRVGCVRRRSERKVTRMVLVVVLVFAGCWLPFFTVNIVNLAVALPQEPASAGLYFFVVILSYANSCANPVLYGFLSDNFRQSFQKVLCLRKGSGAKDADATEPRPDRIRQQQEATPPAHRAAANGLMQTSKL

IC50 [1] [nM] | Activity [2] | inhibition [3] [%] | Compound
1410 | inactive | – | NCCCC[C@@H](NC(=O)CC1SC(c2ccccc2)N([C@@H](Cc2ccc(-c3ccccc3)cc2)C(N)=O)C1=O)C(N)=O (some centres undefined)
– | inactive | 60 | COc1ccc(CCCCN2C(=O)N(CCN3CCCC3)C(=O)[C@@H]2Cc2cccc3ccccc23)cc1
398 | inactive | – | O=C1[C@H](Cc2cccc3ccccc23)N(CCC#Cc2ccccc2)C(=O)N1CCN1CCCC1
– | inactive | 49 | O=C1[C@H](Cc2cccc3ccccc23)N(CCCCc2ccccc2)C(=O)N1CCN1CCCC1
501 | inactive | – | COc1ccc(CCCCN2C(=O)N(CCN3CCCC3)C(=O)[C@@H]2Cc2ccc(OCc3ccccc3)cc2)cc1
316 | inactive | – | O=C1[C@H](Cc2ccc(OCc3ccccc3)cc2)N(CCCCc2ccccc2)C(=O)N1CCN1CCCC1
316 | inactive | – | O=C1[C@H](Cc2ccc(OCc3ccccc3)cc2)N(CCC#Cc2ccccc2)C(=O)N1CCN1CCCC1

From ChEMBL document CHEMBL1130716, “The solid phase synthesis of a series of tri-substituted hydantoin ligands for the somatostatin SST5 receptor” (Bioorg Med Chem Lett, 1998)
